The source of these data is patent US20080064027A1, “TEL/Etv6-mediated inhibition of cell proliferation” (priority 2002, published 2008).

Entries after “also recorded” stand apart in the source; their conditions may differ. Some results are limits rather than exact numbers.

The subject of data set [1] is Stat3 transcriptional activity. Description: Stat3 luciferase reporter assay with transfected TEL or TEL mutants. The class given is cell-based. The protocol:
In brief, TEL- or control, pcDNA3.1-transfected Stat3ERA375 cells, treated with 4HT were cultured in the presence or absence of Trichostatin A (TSA; 250 nM), a general HDAC inhibitor, essentially as described above.
Briefly, Stat3-ER-A375 cells and HEK 293 cells were transfected with the different TEL mutants, a Stat3 reporter plasmid and a Renilla plasmid.
For orientation: Reporter assays use an easily measured gene product as a stand-in for the process of interest.

The test system of data set [2] is Stat3 transcriptional activity. Briefly: APRE-driven luciferase reporter assay. The class given is cell-based. Conditions: for Stat3-dependent transcription of luciferase, increase over control: TEL expression reduced by siRNA. The text has this: Luciferase assays are used to verify that the Stat3-ER construct is transcriptionally active. For this purpose, a luciferase reporter gene driven by the acute-phase response element (APRE) of the alpha 2-macroglobulin gene, a target for Stat1 and Stat3, was used.
Cells (2×10^6 cells/6 well dish) were transfected with a reporter plasmid containing four copies of acute phase responsible element (APRE) upstream of the minimal junB promoter linked to the luciferase gene (T Hirano, EMBO Journal, 1996, 15, 3651-3658), together with the internal control plasmid pRL-SV40 from Promega (Madison, Wis.). Twenty-four hours after the transfection, cells were either left unstimulated or stimulated with OSM (PeproTechEC, London, United Kingdom), 4-hydroxytamoxifen (4HT; Sigma, St. Louis, Mo.) or a combination of 4HT/OSM for 24 hours. The preparation of cell extracts and measurement of luciferase activities were carried out using the Dual-Luciferase reporter assay system from Promega (Madison, Wis.) in an Autolumat LB 953 (Berthold Technologies, Wildbad, Germany). Changes in firefly luciferase activity were expressed relative to Renilla luciferase activity in the same sample.

Data set [3] has as its system TEL. Briefly: TEL expression in human cancer cell lines. The class given is cell-based. An excerpt: TEL is usually expressed as two protein isoforms corresponding to initiation of TEL mRNA translation at ATG codon 1 and 43 (TEL and TEL43). […] To ascertain if TEL is a natural target of Stat3, we examined its expression in human cancer cell lines in response to OSM or IL-6. […] However, TEL expression was unchanged in other cell lines, including the prostate cancer cells PC3 and LNCaP and MDA-MB-468 breast cancer cells, even though it was expected that Stat3 is activated in each of these cell lines by IL-6/OSM treatment.

The next data set concerns C/EBPdelta mRNA. Briefly: C/EBPdelta expression (quantitative PCR). In kind it is cell-based. The protocol: A LacZ siRNA was used as control. The designed RNA oligonucleotides were ‘blasted’ against the GENBANK/EMBL databank to ensure gene specificity. The RNA oligonucleotides were obtained commercially. Transfection with expression vectors was carried out 1 day after the siRNA transfection using Effectene.

Data set [4] deals with Stat3-ER-expressing A375 cells. Description: Cell proliferation after siRNA transfection. The class given is cell-based. An excerpt:
This Example follows cell proliferation of Stat3-ER-expressing A375 cells treated with 4HT or a combination of 4HT and OSM, then cell proliferation in the absence or in the presence of siRNA to C/EBPd.
The following 21-mer oligoribonucleotide pairs were used:
This Example follows cell proliferation of Stat3-ER-expressing A375 cells treated with 4HT or a combination of 4HT and OSM, and in the absence or in the presence of siRNA to TEL.

Data set [5] deals with TEL. Briefly: TEL protein level by Western blotting. The class given is cell-based. Conditions: 4HT or 4HT/OSM treated; relative to control LacZ siRNA. As for the experimental part:
Protein analysis was carried out by Western blotting. In brief, cells were harvested in NP40 extraction buffer (50 mM Tris (pH 7.5), 1 mM EGTA, 5 mM EDTA, 120 mM NaCl, 1% NP40, 2 mM sodium orthovanadate, 50 mM sodium fluoride, 20 mM ? -glycerophosphate, 10 μg/ml leupeptin, 10 μg/ml aprotinin, and 0.5 mM phenylmethylsulfonyl fluoride) for 5 min on ice. The lysates were clarified by centrifugation and protein concentrations were determined using the Bio-Rad protein assay reagent (Bio-Rad Laboratories Gmbh, Munich, Germany). For immunoprecipitaton, equal amounts of proteins were incubated with Stat3 (C-20) from Santa Cruz Biotechnology (Santa Cruz, Calif.) for 1 hr. Following SDS-polyacrylamide gel eletrophoresis (SDS-PAGE), proteins were blotted onto polyvinylidene difluoride membranes (Boehringer Mannheim, Mannheim, Germany). After blocking with 10% horse serum (Life Technologies, Inc.) in 50 mM Tris pH 7.5, 150 mM NaCl, 0.05% Tween 20, filters were probed with specific antibodies; c-TEL, Stat3 (C-20) from Santa Cruz Biotechnology (Santa Cruz, Calif.), phospho-Stat3 (Tyr 705) from Cell Signaling Technology (Beverly, Mass.). Proteins were visualized with peroxidase-coupled secondary antibodies using the enhanced chemiluminescence detection system (Amersham Pharmacia Biotech, Little Chalfont, United Kingdom).
A general note: A western blot detects proteins with antibodies after separation by electrophoresis.

For data set [6], the target named is Signal transducer and activator of transcription 3 (Stat3) (UniProt P40763). Description: cell-based or functional assay.
For the next data set, the system named is Stat3. Briefly: TEL-Stat3 interaction, immunoprecipitation from nuclear extracts. The class given is binding. As for the experimental part:
Since the TEL DNA-binding domain is not required for repression of Stat3 activity, this Example tests the possibility that TEL interacts directly with Stat3. Extracts from nuclear-enriched fractions were prepared from control or OSM-stimulated A375 cells. […] Endogenous TEL was present in Stat3 immunoprecipitates and the levels of TEL associating with Stat3 increased in OSM-treated compared to control-treated nuclear extracts. Conversely, Stat3 is present in a TEL-containing complex, pulled down through an immobilized GGM-containing oligonucleotide, which is a binding site for TEL.

Chain of Signal transducer and activator of transcription 3 (Stat3) (P40763 2-770 limits assumed): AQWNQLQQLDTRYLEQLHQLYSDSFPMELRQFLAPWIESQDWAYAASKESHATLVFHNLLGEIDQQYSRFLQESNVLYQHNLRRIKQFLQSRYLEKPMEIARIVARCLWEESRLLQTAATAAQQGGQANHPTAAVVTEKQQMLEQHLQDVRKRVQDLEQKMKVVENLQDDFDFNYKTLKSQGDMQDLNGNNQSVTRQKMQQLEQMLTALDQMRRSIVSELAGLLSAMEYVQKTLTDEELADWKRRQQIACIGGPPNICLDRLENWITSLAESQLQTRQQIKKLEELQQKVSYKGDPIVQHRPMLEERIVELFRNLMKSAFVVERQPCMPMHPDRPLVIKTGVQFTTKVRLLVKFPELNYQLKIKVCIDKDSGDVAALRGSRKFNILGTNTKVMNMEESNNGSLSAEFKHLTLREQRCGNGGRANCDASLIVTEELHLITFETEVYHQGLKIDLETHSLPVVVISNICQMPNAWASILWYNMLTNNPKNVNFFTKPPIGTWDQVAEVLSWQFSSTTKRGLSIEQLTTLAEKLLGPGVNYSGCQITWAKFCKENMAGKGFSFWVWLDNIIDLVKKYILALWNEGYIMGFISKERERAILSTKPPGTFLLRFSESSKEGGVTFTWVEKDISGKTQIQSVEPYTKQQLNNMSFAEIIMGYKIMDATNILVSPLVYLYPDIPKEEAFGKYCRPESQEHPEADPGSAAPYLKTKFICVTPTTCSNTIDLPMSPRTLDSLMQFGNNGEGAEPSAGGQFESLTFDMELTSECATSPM

Regarding `CC(/C=C/C(=O)NO)=C\[C@@H](C)C(=O)c1ccc(N(C)C)cc1` [TSA, Trichostatin A, reference compound], the “effect on repression of Stat3 activity by TEL” value in data set [1] (TSA 250 nM, TEL-transfected 4HT-stimulated Stat3ERA375 cells) is “prevented the repression of Stat3 activity by TEL”. Besides, the “effect on Stat3 mediated transcriptional activity” value in data set [1] (TSA 250 nM, pcDNA3.1-transfected cells, 4HT) is on record as “had no effects”.
interleukin 6 [IL-6]: the “cooperative effect with 4HT on luciferase activity” value in data set [2] (Stat3-ER-expressing A375 cells) is given as “same cooperative effect with 4HT”. Further, the TEL expression entry with TEL [3] (PC3, LNCaP prostate cancer cells and MDA-MB-468 breast cancer cells) was “unchanged”; in the data set on TEL [3] (T47D and SKBr-3 breast cancer cells, DU145 prostate carcinoma cells, HepG2 hepatoma-derived cells), “significantly increased”.
For the molecule “C/EBPdelta siRNA: siRNA duplex nt 844-864, SEQ ID NO:2 and SEQ ID NO:3 (chain 1 GCAGCUGCCCAGCCCGCCCTT; chain 2 GGGCGGGCUGGGCAGCUGTT; combined DNA/RNA strands, DNA positions not given here, further chemistry not given here)”, in the data set on C/EBPdelta mRNA, the “C/EBPdelta expression in the presence of siRNA” value is given as “significantly reduced expression”. Moreover, the “inhibition of cell proliferation in the presence of siRNA” value in data set [4] (about 40-45% with control siRNA) is listed as “about 25%”. The “reduction of the inhibition of A375 cell proliferation” value in data set [4] (average of three independent experiments, versus control siRNA) was “about 40%”.
With “TEL siRNA: siRNA nt 540-560, SEQ ID NO:4 and SEQ ID NO:5 (chain 1 CCCUCCCACCAUUGAACUGTT; chain 2 CAGUUCAAUGGUGGGAGGGTT; combined DNA/RNA strands, DNA positions not given here, further chemistry not given here)”, the “Stat3-dependent transcription of luciferase, increase over control” value in data set [2] (induced by 4HT) is on record as roughly 16 fold; in data set [2] (induced by OSM), roughly 18 fold. In addition, the “TEL expression in the presence of TEL siRNA” value in the data set with TEL [5] is “largely prevented; also recorded: strongly decreased”. Besides, the “anti-proliferative effects of Stat3 versus control LacZ siRNA treated cultures” value in data set [4] (4HT and OSM treated Stat3ER A375 cells) is given as “stronger”. In data set [4] (about 28% without TEL siRNA), the “Stat3-mediated inhibition of A375 cell proliferation in the presence of TEL siRNA” value was “about 40%”.
“TEL/Etv6 (ets variant gene 6; TEL oncogene) (from UniProt P41212 1-452)” gave a Stat3 activity (APRE luciferase reporter) in response to OSM on overexpression of TEL in data set [6] greater than 70 % reduction.
For the molecule “TEL: ets variant gene 6 (TEL oncogene) product, overexpressed by transfection”, the “reduction in Stat3 activity by overexpression of TEL” value in data set [1] (in response to OSM, Stat3ER A375 cells and HEK293 cells) is recorded as greater than 70%. Also, the “interaction with Stat3” value with Stat3 is on record as “still interact with Stat3”.

B1: TEL delta 442-452: TEL deletion mutant (protein)
chain: MSETPAQCSIKQERISYTPPESPVPSYASSTPLHVPVPRALRMEEDSIRLPAHLRLQPIYWSRDDVAQWLKWAENEFSLRPIDSNTFEMNGKALLLLTKEDFRYRSPHSGDVLYELLQHILKQRKPRILFSPFFHPGNSIHTQPEVILHQNHEEDNCVQRTPRPSVDNVHHNPPTIELLHRSRSPITTNHRPSPDPEQRPLRSPLDNMIRRLSPAERAQGPRPHQENNHQESYPLSVSPMENNHCPASSESHPKPSSPRQESTRVIQLMPSPIMHPLILNPRHSVDFKQSRLSEDGLHREGKPINLSHREDLAYMNHIMVSVSPPEEHAMPIGRIADCRLLWDYVYQLLSDSRYENFIRWEDKESKIFRIVDPNGLARLWGNHKNRTNMTYEKMSRALRHYYKLNIIRKEPGQRLLFRFMKTPDEIMSGRTDRLEHLESQE
Consider B1, for which the “repression of 4HT- or OSM-induced Stat3 transcriptional activity” value in data set [1] (Stat3-ER-A375 cells and HEK 293 cells, 24 h) is listed as “is not able to repress Stat3 activity”.
